Data on 2 molecules can be found in paper PMC5272823 (Peptides, 2016).

Ends that are not written are not given here.

The format of test [1] is in vivo, Female C57BL/6J mice. Particulars: glucose 0.35 g/kg i.v. alone; plasma ELISA; n=15. In general terms: An ELISA detects its analyte on a solid surface through an enzyme-linked reagent.
For test [2] the following is noted: ref [10]; cited from earlier work.

With `OC[C@H]1OC(O)[C@H](O)[C@@H](O)[C@@H]1O` (stereo partly drawn) [glucose], in test [1], the “Insulin peak concentration at 1 min” value worked out at 0.9 ± 0.2 nmol/L.
Turning to “GLP-1 (HAEGTFTSDVSSYLEGQAAKEFIAWLVKGR; ends and bridges not checked; UniProt P01275 98-127, looked up)”, in test [2], the “Effect on insulin clearance” value was “diminish insulin clearance” and the “Effect on insulin secretion” value is reported as “stimulate insulin secretion”.
